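All cell lines were grown in 96-well plates and treated with compound for 48 hours. GI50 = concentration required for 50% inhibition of growth.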 The source made the active and inactive calls. Cut-off read from the data, not from the text of the source: active = GI50 up to about 1.1 µM and inactive = higher.
Key:
Assay in all cases: NCI anticancer screen, dose series, 48 h
XF498 = tested on: XF498
LXFL 529 = tested on: LXFL 529
HOP-18 = tested on: HOP-18
M19-MEL = tested on: M19-MEL
DLD-1 = tested on: DLD-1
SNB-78 = tested on: SNB-78
RXF 631 = tested on: RXF 631
DMS-114 = tested on: DMS-114
DMS-273 = tested on: DMS-273

Measured: GI50

CCOC(=O)C1C(NC(N)=O)N(Cc2ccccc2)C(=O)N1Cc1ccccc1 (stereo unspecified)
inactive: XF498 > 100 µM | LXFL 529 > 100 µM | HOP-18 > 100 µM | M19-MEL > 100 µM | DLD-1 > 100 µM | SNB-78 15.4 µM | RXF 631 > 100 µM | DMS-114 > 100 µM | DMS-273 > 100 µM

O=[N+]([O-])c1ccc2nc3ccscc-3c2c1
inactive: XF498 17.1 µM | LXFL 529 13.7 µM | HOP-18 14.1 µM | M19-MEL 20.1 µM | DLD-1 9.64 µM | SNB-78 23 µM | RXF 631 14.8 µM | DMS-114 16.9 µM | DMS-273 12.2 µM

O=[N+]([O-])c1ccc2c(Nc3ccccc3-c3ccccc3Nc3c4ccccc4nc4cc([N+](=O)[O-])ccc34)c3ccccc3nc2c1
inactive: XF498 1.59 µM | LXFL 529 2.61 µM | HOP-18 > 100 µM | M19-MEL 6.56 µM | DLD-1 2.63 µM | SNB-78 > 100 µM | RXF 631 5.9 µM | DMS-114 11.1 µM | DMS-273 4.58 µM

CCOC(=O)C(=O)Nc1c(C)cccc1CC
inactive: XF498 > 100 µM | LXFL 529 > 100 µM | HOP-18 > 100 µM | M19-MEL > 100 µM | DLD-1 > 100 µM | SNB-78 > 100 µM | RXF 631 > 100 µM | DMS-114 > 100 µM

O=C1N2Cc3c4ccc5c3CN3C(=O)N6Cc7c(ccc(c7CN1C6(c1ccccc1)C23c1ccccc1)OCCOCCNCCOCCO4)OCCOCCNCCOCCO5 (stereo unspecified)
inactive: XF498 60.1 µM | LXFL 529 13.7 µM | HOP-18 14.4 µM | M19-MEL 24.9 µM | DLD-1 > 100 µM | SNB-78 > 100 µM | RXF 631 31.4 µM | DMS-114 > 100 µM | DMS-273 41.2 µM

COc1cc(C(=O)CC2(O)C(=O)Nc3c(Cl)cc(Cl)cc32)ccc1O (stereo unspecified)
inactive: XF498 48.3 µM | LXFL 529 27.9 µM | HOP-18 34.4 µM | DLD-1 41.9 µM | SNB-78 87.9 µM | RXF 631 > 100 µM | DMS-114 37.8 µM | DMS-273 53 µM

C=CC1(C)/C(=N\O)C(C)(CC)C(=O)N1O (stereo unspecified)
inactive: XF498 > 100 µM | LXFL 529 > 100 µM | HOP-18 > 100 µM | M19-MEL > 100 µM | DLD-1 > 100 µM | SNB-78 > 100 µM | RXF 631 > 100 µM | DMS-114 > 100 µM | DMS-273 > 100 µM

From ChEMBL document CHEMBL1201862, “PubChem BioAssay data set” (2004)
